Measured values: patent US12269901B2, “Peptide and use thereof” (ENSOL BIOSCIENCES, INC., priority 2019, dated 2025)

Columns and labels:
[1] = system: IFN-γ; assay: IFN-γ mRNA expression in anti-CD28-stimulated splenocytes (RT-PCR, relative to GAPDH); assay type: cell-based; conditions: splenocytes of diabetic NOD mice, 2 ng/ml anti-mouse CD28, 100 mM peptide, 3 hr
Procedure: (§1) The end of the tail of the experimental animals prepared as in Example 2-1 was wounded once a week, and a drop of blood therefrom was measured for blood glucose levels using a glucometer (Roche, Accu-CHEK Performa). The blood glucose levels were confirmed to be “high” (600 mg/dL or more), the mice were subjected to cervical dislocation, and the spleen was extracted therefrom. A cell strainer (BD, 352350) was placed on a 50 ml tube, and the extracted spleen tissue was passed through the cell strainer using the plunger end of a syringe, after which the tube containing the strained cells was added with HBSS (Hanks' Balanced Salt solution) so that the cells were washed with water, followed by centrifugation (1,000 rpm, 5 min) to remove the supernatant. The cells were suspended with 1 ml of HBSS, added with 10 ml of 1×RBC lysis buffer (Ebioscience, 00-4333-57), mixed with gentle stirring, allowed to stand in ice for 5 min, and then centrifuged (1,000 rpm, 5 min) to remove the supernatant. The resulting cells were added with 10 ml of a RBC lysis buffer once more, allowed to stand in ice for 5 min, further centrifuged (1,000 rpm, 5 min) to remove the supernatant, and then washed two times with 10 ml of HBSS. After final centrifugation (1,000 rpm, 5 min), the cells were suspended with 1 ml of HBSS, 50 μl of the cells were diluted with a trypan blue solution at 1:1, and the number of cells was counted using a hemocytometer. […]
(§2) Thereafter, the cells were centrifuged (1,000 rpm, 5 min) to remove the supernatant, lysed through pipetting with 5 ml of TRIzol (Invitrogen, 15596-018), and allowed to stand at room temperature for 5 min. […] RNA was eluted by adding 30 μl of DEPC-treated water and quantified.
(§3) cDNA was synthesized through the experimental procedure for a cDNA synthesis kit (ELPISbio, EBT-1512) using […] of the quantified RNA. Then, in accordance with the procedure for a PCR (Polymerase Chain Reaction) kit (Solgent, SEF01-M50H), cDNA of each cytokine (IFN-γ, TNF-α, TGF-β1) and a housekeeping gene GAPDH for quantitative determination of changes in cytokine expression were amplified. […]

[2] = system: TNF-α; assay: TNF-α mRNA expression in anti-CD28-stimulated splenocytes (RT-PCR, relative to GAPDH); assay type: cell-based; conditions: splenocytes of diabetic NOD mice, 2 ng/ml anti-mouse CD28, 100 mM peptide, 3 hr
Procedure: as §1, §2, §3

[3] = system: TGF-β1; assay: TGF-β1 mRNA expression in anti-CD28-stimulated splenocytes (RT-PCR, relative to GAPDH); assay type: cell-based; conditions: splenocytes of diabetic NOD mice, 2 ng/ml anti-mouse CD28, 100 mM peptide, 72 hr
Procedure: as §1, §2, §3

[4] = system: NOD/ShiLtJ mice with type 1 diabetes; assay: Effect of lowering blood glucose levels in animals with type 1 diabetes; assay type: in vivo, mouse; conditions: NOD mice with type 1 diabetes, 5 mg/kg SC every morning and evening, up to 14 days, two animals; negative control (PBS) continuously increased
Excerpt: (§4) The experimental animals were 8-week-old female NOD/ShiLtJ (Jackson Lab). NOD (Non-obese diabetic) mice are animal models of insulitis and type 1 diabetes. In these animals, it is known that type 1 diabetes occurs at 18 weeks of age on average and 90% of incidence thereof occurs by 30 weeks of age. All animals were housed under SPF barrier conditions. This study was approved by the Institutional Animal Care and Use Committee of Osong Medical Innovation Foundation Laboratory Animal Center (Kbio-IACUC-2018-066). The acclimation period was 1 week, and the light/dark cycle was 12 hr ([…]). The temperature was 20±2° C., and the relative humidity was 60 to 80%. Since the incidence of diabetes may be inhibited by intestinal microorganisms, water, the pH of which was adjusted to 2.8-3.2 using HCl, was supplied to the experimental animals.
The end of the tail of the experimental animals prepared above was wounded once a week and a drop of blood therefrom was measured for blood glucose levels using a glucometer (Roche, Accu-CHEK Performa). When the blood glucose levels were measured to be 250 mg/dL or more and the blood glucose levels remeasured on the third day thereafter was also 250 mg/dL or more, type 1 diabetes was considered to have occurred, and the experiment was conducted. […]

[5] = system: NOD/ShiLtJ mice with type 1 diabetes (insulitis); assay: Effect of inhibiting or reducing development of insulitis (insulitis score of pancreatic islets, H&E); assay type: in vivo, mouse; conditions: NOD mice with type 1 diabetes, 5 mg/kg SC every morning and evening for 14 days, pancreas on 14th day
Excerpt: as §4
The end of the tail of the experimental animals prepared above was wounded once a week and a drop of blood therefrom was measured for blood glucose levels using a glucometer (Roche, Accu-CHEK Performa). When the blood glucose levels were measured to be 250 mg/dL or more and the blood glucose levels remeasured on the third day thereafter was also 250 mg/dL or more, type 1 diabetes was considered to have occurred, and the experiment was conducted.
Two experimental animals with type 1 diabetes were selected as the treatment group of Example 1, and were subcutaneously (SC) administered with 100 μl of the peptide of Example 1 (5 mg/kg). The administration was performed every morning and evening for 14 days, and the blood glucose levels were measured using a glucometer. […] On the 14th day, one experimental animal, the blood glucose levels of which were measured to be less than 250 mg/dL, was selected as a normal group, and was used to compare the insulitis scores of experimental animals with type 1 diabetes and experimental animals without type 1 diabetes.
After measurement of the blood glucose levels on the 14th day, the pancreas was removed from the experimental animals and fixed in 10% […] buffered formalin (10% NBF, Sigma, HT5011) to manufacture a paraffin block. […] For the treatment group of Example 1, the number of islets in two animals was measured, individual islets were classified depending on the stage of insulitis to thus determine the insulitis score, and the number of islets corresponding to each insulitis stage among the total number of islets was represented as a percentage. For the negative control group and the normal group, the insulitis scores were determined as in the treatment group of Example 1, after which the number of islets corresponding to each insulitis stage among the total number of islets was represented as a percentage. […]

GAGAGY [Comparative Example 1]
IFN-γ mRNA expression level compared to the negative control group (anti-CD28) [1]: did not greatly change
TNF-α mRNA expression level compared to the negative control group (anti-CD28) [2]: did not greatly change
TGF-β1 mRNA expression level compared to the negative control group (anti-CD28) [3]: did not greatly change

YGAGAG [Comparative Example 2]
IFN-γ mRNA expression level compared to the negative control group (anti-CD28) [1]: did not greatly change
TNF-α mRNA expression level compared to the negative control group (anti-CD28) [2]: increase
TGF-β1 mRNA expression level compared to the negative control group (anti-CD28) [3]: did not greatly change

YGAGAGAGY [Example 1]
blood glucose levels [4]: decreased significantly and then remained in the normal range
IFN-γ mRNA expression level compared to the negative control group (anti-CD28) [1]: reduced
TNF-α mRNA expression level compared to the negative control group (anti-CD28) [2]: reduced
percentage of islets in insulitis stage 3 compared to the negative control group [5]: decreased
percentage of islets in stage 0 (no insulitis) compared to the negative control group [5]: approximately doubled
percentage of islets in stage 0 compared to the normal group [5]: higher
percentages of islets in insulitis stages 0-2 compared to the negative control group [5]: increased
TGF-β1 mRNA expression level compared to the negative control group (anti-CD28) [3]: increased
